Laboratory results from the NIST ThermoML archive (doi:10.1021/je025630q).

Experiment: compressibility factor (dimensionless); xn = mol fraction of the nth substance listed
Conditions: Gas, Burnett expansion method

CF [fluoromethane] + O=C=O
Conditions | compressibility factor
323.15 K, 1023.9 kPa, x2 = 0.619 | 0.9523
323.15 K, 1109.6 kPa, x2 = 0.189 | 0.9349
323.15 K, 1394.9 kPa, x2 = 0.378 | 0.9259
323.15 K, 1451.1 kPa, x2 = 0.791 | 0.9369
323.15 K, 1495.6 kPa, x2 = 0.619 | 0.9293
323.15 K, 1606.1 kPa, x2 = 0.189 | 0.904
323.15 K, 2009.1 kPa, x2 = 0.378 | 0.8909
323.15 K, 2102.7 kPa, x2 = 0.791 | 0.907
323.15 K, 2158.3 kPa, x2 = 0.619 | 0.8959
323.15 K, 2286.6 kPa, x2 = 0.189 | 0.8598
323.15 K, 2838.8 kPa, x2 = 0.378 | 0.8409
323.15 K, 2997.8 kPa, x2 = 0.791 | 0.8639
323.15 K, 3058.6 kPa, x2 = 0.619 | 0.8482
323.15 K, 3176.6 kPa, x2 = 0.189 | 0.798
323.15 K, 3899.6 kPa, x2 = 0.378 | 0.7717
323.15 K, 4170 kPa, x2 = 0.791 | 0.8027
323.15 K, 4217.2 kPa, x2 = 0.619 | 0.7813
323.15 K, 4257.2 kPa, x2 = 0.189 | 0.7144
323.15 K, 5138.4 kPa, x2 = 0.378 | 0.6793
323.15 K, 5587.6 kPa, x2 = 0.619 | 0.6915
323.15 K, 5596 kPa, x2 = 0.791 | 0.7197
333.15 K, 120.3 kPa, x2 = 0.392 | 0.9924
333.15 K, 128.5 kPa, x2 = 0.793 | 0.9965
333.15 K, 130.5 kPa, x2 = 0.572 | 0.9947
333.15 K, 141.4 kPa, x2 = 0.219 | 0.9909
333.15 K, 179.8 kPa, x2 = 0.392 | 0.9911
333.15 K, 191.9 kPa, x2 = 0.793 | 0.9938
333.15 K, 194.8 kPa, x2 = 0.572 | 0.9922
333.15 K, 211.2 kPa, x2 = 0.219 | 0.9886
333.15 K, 268.3 kPa, x2 = 0.392 | 0.9879
333.15 K, 286.2 kPa, x2 = 0.793 | 0.9901
333.15 K, 290.4 kPa, x2 = 0.572 | 0.9884
333.15 K, 314.8 kPa, x2 = 0.219 | 0.9843
333.15 K, 399.3 kPa, x2 = 0.392 | 0.9824
333.15 K, 426 kPa, x2 = 0.793 | 0.9846
333.15 K, 432.2 kPa, x2 = 0.572 | 0.9824
333.15 K, 467.7 kPa, x2 = 0.219 | 0.977
333.15 K, 592.5 kPa, x2 = 0.392 | 0.9737
333.15 K, 632.5 kPa, x2 = 0.793 | 0.9765
333.15 K, 641.1 kPa, x2 = 0.572 | 0.9736
333.15 K, 692.1 kPa, x2 = 0.219 | 0.9657
333.15 K, 874.8 kPa, x2 = 0.392 | 0.9605
333.15 K, 935.3 kPa, x2 = 0.793 | 0.9647
333.15 K, 946.8 kPa, x2 = 0.572 | 0.9606
333.15 K, 1017.9 kPa, x2 = 0.219 | 0.9489
333.15 K, 1282.7 kPa, x2 = 0.392 | 0.9408
333.15 K, 1375.1 kPa, x2 = 0.793 | 0.9475
333.15 K, 1389.2 kPa, x2 = 0.572 | 0.9416
333.15 K, 1484.9 kPa, x2 = 0.219 | 0.9247
333.15 K, 1863.4 kPa, x2 = 0.392 | 0.913
333.15 K, 2004.2 kPa, x2 = 0.793 | 0.9226
333.15 K, 2018.3 kPa, x2 = 0.572 | 0.9138
333.15 K, 2137.2 kPa, x2 = 0.219 | 0.8891
333.15 K, 2666.7 kPa, x2 = 0.392 | 0.8729
333.15 K, 2882 kPa, x2 = 0.793 | 0.8863
333.15 K, 2888.7 kPa, x2 = 0.572 | 0.8738
333.15 K, 3016.4 kPa, x2 = 0.219 | 0.8383
333.15 K, 3728.6 kPa, x2 = 0.392 | 0.8154
333.15 K, 4045.3 kPa, x2 = 0.572 | 0.8174
333.15 K, 4063.7 kPa, x2 = 0.793 | 0.8348
333.15 K, 4136 kPa, x2 = 0.219 | 0.7679
333.15 K, 5046.6 kPa, x2 = 0.392 | 0.7372
333.15 K, 5488.2 kPa, x2 = 0.572 | 0.7409
333.15 K, 5565.8 kPa, x2 = 0.793 | 0.7639
343.15 K, 125.5 kPa, x2 = 0.402 | 0.9971
343.15 K, 125.6 kPa, x2 = 0.787 | 0.996
343.15 K, 128.3 kPa, x2 = 0.591 | 0.9967
343.15 K, 135.4 kPa, x2 = 0.18 | 0.9953
343.15 K, 187.3 kPa, x2 = 0.402 | 0.9939
343.15 K, 187.7 kPa, x2 = 0.787 | 0.9941
343.15 K, 191.6 kPa, x2 = 0.591 | 0.9938
343.15 K, 202 kPa, x2 = 0.18 | 0.9914
343.15 K, 279.1 kPa, x2 = 0.402 | 0.9895
343.15 K, 280.1 kPa, x2 = 0.787 | 0.9911
343.15 K, 285.7 kPa, x2 = 0.591 | 0.9901
343.15 K, 300.8 kPa, x2 = 0.18 | 0.9865
343.15 K, 415.1 kPa, x2 = 0.402 | 0.9834
343.15 K, 417.3 kPa, x2 = 0.787 | 0.9864
343.15 K, 425.2 kPa, x2 = 0.591 | 0.9845
343.15 K, 447 kPa, x2 = 0.18 | 0.9794
343.15 K, 615.9 kPa, x2 = 0.402 | 0.9747
343.15 K, 620.2 kPa, x2 = 0.787 | 0.9794
343.15 K, 631.2 kPa, x2 = 0.591 | 0.9764
343.15 K, 662 kPa, x2 = 0.18 | 0.969
343.15 K, 910 kPa, x2 = 0.402 | 0.962
343.15 K, 918.6 kPa, x2 = 0.787 | 0.9691
343.15 K, 933.5 kPa, x2 = 0.591 | 0.9646
343.15 K, 975.3 kPa, x2 = 0.18 | 0.9536
343.15 K, 1336.1 kPa, x2 = 0.402 | 0.9436
343.15 K, 1353.5 kPa, x2 = 0.787 | 0.9539
343.15 K, 1372.4 kPa, x2 = 0.591 | 0.9474
343.15 K, 1426.1 kPa, x2 = 0.18 | 0.9315
343.15 K, 1943.4 kPa, x2 = 0.402 | 0.9169
343.15 K, 1979.2 kPa, x2 = 0.787 | 0.9318
343.15 K, 1999.6 kPa, x2 = 0.591 | 0.9222
343.15 K, 2061.5 kPa, x2 = 0.18 | 0.8996
343.15 K, 2787.5 kPa, x2 = 0.402 | 0.8786
343.15 K, 2861 kPa, x2 = 0.787 | 0.8998
343.15 K, 2876.3 kPa, x2 = 0.591 | 0.8861
343.15 K, 2930.2 kPa, x2 = 0.18 | 0.8542
343.15 K, 3914.8 kPa, x2 = 0.402 | 0.8243
343.15 K, 4057.2 kPa, x2 = 0.591 | 0.835
343.15 K, 4064.7 kPa, x2 = 0.18 | 0.7916
343.15 K, 4064.8 kPa, x2 = 0.787 | 0.8541
343.15 K, 5337.5 kPa, x2 = 0.402 | 0.7508
343.15 K, 5565.1 kPa, x2 = 0.591 | 0.7652
343.15 K, 5631.7 kPa, x2 = 0.787 | 0.7905
